Laboratory results taken from patent US20200128830A1, “FUSED BICYCLIC HETEROCYCLE DERIVATIVES AS PESTICIDES” (Bayer Aktiengesellschaft, priority 2017, published 2020).

How the values were obtained:
Assay type in all cases: in vivo
Spodoptera frugiperda = Spodoptera frugiperda spray test; conditions: foliar, 168 h, application rate 100 g/ha, caterpillars on maize leaf discs, after 7 days, read-out: efficacy
Description: Spodoptera frugiperda—Spray Test [table] To produce a suitable active compound formulation, 1 part by weight of active compound is dissolved with the specified parts by weight of solvent and made up to the desired concentration with water containing an emulsifier concentration of 1000 ppm. To produce further test concentrations, the formulation is diluted with emulsifier-containing water. Leaf discs of maize (Zea mays) are sprayed with an active compound formulation of the desired concentration and, after drying, populated with caterpillars of the fall armyworm (Spodoptera frugiperda). After 7 days, the efficacy in % is determined. 100% means that all the caterpillars have been killed; 0% means that no caterpillar has been killed.

Ctenocephalides felis [1] = experiment: Ctenocephalides felis in vitro contact test with adult cat fleas; conditions: application rate 5 μg/cm^2 (=500 g of ai/ha); adult cat fleas in coated glass tube; after 48 h; dead or moribund
Description: Ctenocephalides felis—In Vitro Contact Tests with Adult Cat Fleas For the coating of the test tubes, 9 mg of active compound are first dissolved in 1 ml of acetone p.a. and then diluted to the desired concentration with acetone p.a. 250 μl of the solution are distributed homogeneously on the inner walls and the base of a 25 ml glass tube by turning and rocking on an orbital shaker (rocking rotation at 30 rpm for 2 h). With 900 ppm of active compound solution and internal surface area 44.7 cm^2, given homogeneous distribution, an area-based dose of 5 μg/cm^2 is achieved. After the solvent has evaporated off, the tubes are populated with 5-10 adult cat fleas (Ctenocephalides felis), sealed with a perforated plastic lid and incubated in a horizontal position at room temperature and ambient humidity. After 48 h, efficacy is determined. To this end, the tubes are stood upright and the fleas are knocked to the base of the tube. Fleas which remain motionless at the base or move in an uncoordinated manner are considered to be dead or moribund. […] 100% efficacy means that all the fleas were dead or moribund. 0% efficacy means that no fleas were harmed.

Musca domestica = Musca domestica test; conditions: application rate 100 ppm; adult houseflies, sponge with sugar solution; after 2 days
Description: Musca domestica Test Solvent: Dimethyl Sulfoxide To produce a suitable active compound formulation, 10 mg of active compound are mixed with 0.5 ml of dimethyl sulfoxide, and the concentrate is diluted with water to the desired concentration. Vessels containing a sponge treated with sugar solution and the desired concentration of active compound formulation are populated with 10 adult houseflies (Musca domestica). After 2 days, the kill in % is determined. 100% means that all of the flies have been killed; 0% means that none of the flies have been killed.

Lucilia cuprina = Lucilia cuprina test; conditions: application rate 100 ppm; L1 larvae on minced horsemeat; after 2 days
Description: Lucilia cuprina Test Solvent: Dimethyl Sulfoxide To produce a suitable active compound formulation, 10 mg of active compound are mixed with 0.5 ml of dimethyl sulfoxide, and the concentrate is diluted with water to the desired concentration. About 20 L1 larvae of the Australian sheep blowfly (Lucilia cuprina) are transferred into a test vessel containing minced horsemeat and the active compound preparation of the desired concentration. After 2 days, the kill in % is determined. 100% means that all the larvae have been killed; 0% means that no larvae have been killed.

Phaedon cochleariae = Phaedon cochleariae spray test; conditions: foliar, 168 h, application rate 100 g/ha, larvae on Chinese cabbage leaf discs, after 7 days, read-out: efficacy
Description: Phaedon cochleariae—Spray Test
To produce a suitable active compound formulation, 1 part by weight of active compound is dissolved with the specified parts by weight of solvent and made up to the desired concentration with water containing an emulsifier concentration of 1000 ppm. To produce further test concentrations, the formulation is diluted with emulsifier-containing water.
Discs of Chinese cabbage leaves (Brassica pekinensis) are sprayed with an active compound formulation of the desired concentration and, after drying, populated with larvae of the mustard beetle (Phaedon cochleariae).
After 7 days, the efficacy in % is determined. 100% means that all the beetle larvae have been killed; 0% means that no beetle larvae have been killed.

Ctenocephalides felis [2] = experiment: Ctenocephalides felis oral test; conditions: application rate 100 ppm in citrated cattle blood; unfed adult cat fleas; after 2 days
Description: Ctenocephalides felis—Oral Test Solvent: Dimethyl Sulfoxide To produce a suitable active compound formulation, 10 mg of active compound are mixed with 0.5 ml of dimethyl sulfoxide. Dilution with citrated cattle blood gives the desired concentration. About 20 unfed adult cat fleas (Ctenocephalides felis) are placed into a chamber which is closed at the top and bottom with gauze. A metal cylinder whose bottom end is closed with parafilm is placed onto the chamber. The cylinder contains the blood/active compound formulation, which can be imbibed by the fleas through the parafilm membrane. After 2 days, the kill in % is determined. 100% means that all of the fleas have been killed; 0% means that none of the fleas have been killed.

Myzus persicae = Myzus persicae oral test; conditions: 120 h, application rate 4 ppm, mixed population of green peach aphids, after 5 days, read-out: efficacy
Description: Myzus persicae—Oral Test [table] To produce a suitable active compound formulation, 1 part by weight of active compound is dissolved with the stated parts by weight of solvent and made up to the desired concentration with water. 50 μl of the active compound formulation are transferred into microtitre plates and made up to a final volume of 200 μl with 150 μl of IPL41 insect medium (33%+15% sugar). Subsequently, the plates are sealed with parafilm, which a mixed population of green peach aphids (Myzus persicae) within a second microtitre plate is able to puncture and imbibe the solution. After 5 days, the efficacy in % is determined. 100% means that all the aphids have been killed; 0% means that no aphids have been killed.

## CCS(=O)(=O)c1c(-c2nc3cc(C(F)(F)F)ncc3n2C)sc2nc(C(F)(F)F)sc12 [I-10]
Spodoptera frugiperda
  pest or weed control at 100 g/ha: 100%
Ctenocephalides felis [1]
  efficacy: 100%
Musca domestica
  efficacy (kill in %): 80%
Lucilia cuprina
  efficacy (kill in %): 100%
Phaedon cochleariae
  pest or weed control at 100 g/ha: 100%
Ctenocephalides felis [2]
  efficacy (kill in %): 80%
Myzus persicae
  pest or weed control at 4 ppm: 90%
